Test results published in patent publication US20230149510A1, “METHOD FOR ALLEVIATING ARTHRITIS USING EPIDERMAL GROWTH FACTOR” (Lovin BioMed Co., Ltd., priority 2021, published 2023).

Test system: TNF-α, IL-1β, IL-6, IL-17A, IFN-γ and IL-8 in sole tissue, CII-induced RA
Assay: Inflammatory markers in sole tissue (ELISA), collagen-induced RA
Assay type: in vivo, DBA/1 mice
Settings: mouse sole tissue
Method: 2 mg/mL of a Chick type II collagen (CII) solution (Chondrex Inc., Cat. No. 20012) (in 10 mM acetic acid) was mixed with complete Freund's adjuvant (Sigma Aldrich, Cat. No. F5881-10ML) at a ratio of 1:1 (v/v), so as to obtain a first CII emulsion. 2 mg/mL of a Chick type CII solution was mixed with incomplete Freund's adjuvant (ChemCruzx, Cat. No. sc-24648) at a ratio of 1:1 (v/v), so as to obtain a second CII emulsion.
The female DBA/1 mice were divided into five groups, including one normal control group, one pathological control group, one comparative group, and two experimental groups (i.e., experimental groups 1 to 2) (n=6 mice in each group). 200 μL of the first CII emulsion was injected subcutaneously into the tail of the respective mouse of the pathological control group, the comparative group, and the two experimental groups. The mice were subjected to a boost injection using 200 μL of the second CII emulsion on the 21st day after the initial immunization, so as to induce the occurrence of RA. In addition, the rats of the normal control group were injected with an adjuvant solution (in PBS).
After completion of the boost injection, the respective mouse in the comparative group was intraperitoneally injected with 100 μL of 1% HA, the respective mouse in the experimental group 1 was intraperitoneally injected with 100 μL of the EGF solution (containing 20 μg/g EGF) prepared in section C of Example 1, the respective mouse in the experimental group 2 was intraperitoneally injected with 100 μL of the mixture solution (containing 20 μg/g EGF) prepared in section C of Example 1. Each mouse was administered once daily for a total period of 20 days.
After completion of the evaluation of RA severity as described in section C of this example, the mice in each group were sacrificed by virtue of 95% CO2 asphyxiation, and the knee joint tissue of the hind leg and the sole tissue were obtained from each mouse carcass. The knee joint tissue of the hind leg of each mouse was subjected to histological sectioning, hematoxylin-eosin staining, and microscopic observation in sequence according to the methods described in section F of Example 1.
100 mg of the sole tissue of each mouse obtained in section D of this example was subjected to a freezing treatment with liquid nitrogen, followed by grinding. The resultant ground tissue was mixed with 1 mL of a tissue lysis buffer (Gold Biotechnology, Inc., Cat. No. GB-181-100) (containing protease inhibitor cocktail), followed by determining the contents of TNF-α, IL-1β, IL-6, IL-17A, IFN-γ, and IL-8 respectively using a TNF-α ELISA kit (BioLegend, Cat. No. 430904), an IL-1β ELISA kit (BioLegend, Cat. No. 432604), an IL-6 ELISA kit (BioLegend, Cat. No. 431304), an IL-17A ELISA kit (BioLegend, Cat. No. 432504), an IFN-γ ELISA kit (BioLegend, Cat. No. 430807), and an IL-8 ELISA kit (MyBioSource, Cat. No. MBS261967) in accordance with the manufacturer's instructions.
The data thus obtained were analyzed according to the method described in section 1 of “General Procedures”.

“EGF: Epidermal growth factor (Cat. No. 02-108, Joycom Bio-chem) dissolved in PBS, 20 μg/g EGF; given to experimental group 1 (NSDSECPLSHDGYCLHDGVCMYIEALDKYACNCVVGYIGERCQYRDLKWWELR; UniProt P01133 971-1023, looked up)” was tested. Which “content of IL-1β” value (FIG. 8) did it give?
Its value is “apparently or significantly lower than those determined in the pathological control group”.

What about the “content of IL-6” value (FIG. 8) of the same substance?
The value was “apparently or significantly lower than those determined in the pathological control group”.

And the “content of TNF-α” value (FIG. 8)?
Its value is “apparently or significantly lower than those determined in the pathological control group”.

And the “content of IFN-γ” value (FIG. 9)?
The value was “apparently or significantly lower than those determined in the pathological control group”.

And the “content of IL-8” value (FIG. 9)?
The value was “apparently or significantly lower than those determined in the pathological control group”.

And the “content of IL-17A” value (FIG. 9)?
The value was “apparently or significantly lower than those determined in the pathological control group”.
